Measurements: the NIST ThermoML archive (doi:10.1016/j.fluid.2006.12.011)
Numbers after ± are expanded uncertainties.

Assay: xn = mol fraction of the nth substance listed
Settings: Liquid, Vibrating tube method

C1CC[C@H]2CCCC[C@H]2C1 [cis-decahydronaphthalene] + C1CC[C@H]2CCCC[C@@H]2C1
mass density [kg/m3]
Settings | x1 = 0.2 | x1 = 0.35 | x1 = 0.5 | x1 = 0.65 | x1 = 0.8 | x1 = 1
303.15 K, 100 kPa | 867.4 ± 1 | 871.5 ± 1.1 | 875.5 ± 1.1 | 879.2 ± 1.1 | 883.4 ± 1.1 | 888.5 ± 1.2
303.15 K, 5000 kPa | 870.6 ± 1 | 874.6 ± 1.1 | 878.5 ± 1.1 | 882.3 ± 1.1 | 886.3 ± 1.1 | 891.4 ± 1.2
303.15 K, 10000 kPa | 873.8 ± 1.1 | 877.7 ± 1.1 | 881.6 ± 1.1 | 885.3 ± 1.1 | 889.4 ± 1.2 | 894.4 ± 1.2
303.15 K, 15000 kPa | 876.8 ± 1.1 | 880.7 ± 1.1 | 884.5 ± 1.1 | 888.3 ± 1.1 | 892.3 ± 1.2 | 897.3 ± 1.2
303.15 K, 20000 kPa | 879.7 ± 1.1 | 883.6 ± 1.1 | 887.5 ± 1.1 | 891.2 ± 1.1 | 895.2 ± 1.2 | 899.9 ± 1.2
303.15 K, 25000 kPa | 882.6 ± 1.1 | 886.4 ± 1.1 | 890.3 ± 1.1 | 894 ± 1.1 | 897.9 ± 1.2 | 902.8 ± 1.3
303.15 K, 30000 kPa | 885.3 ± 1.1 | 889.2 ± 1.1 | 893 ± 1.1 | 896.7 ± 1.2 | 900.6 ± 1.2 | 905.5 ± 1.3
303.15 K, 35000 kPa | 888 ± 1.1 | 891.8 ± 1.1 | 895.6 ± 1.1 | 899.3 ± 1.2 | 903.2 ± 1.2 | 908 ± 1.3
303.15 K, 40000 kPa | 890.7 ± 1.1 | 894.5 ± 1.1 | 898.2 ± 1.1 | 901.9 ± 1.2 | 905.7 ± 1.2 | 910.6 ± 1.3
303.15 K, 45000 kPa | 893.2 ± 1.1 | 896.9 ± 1.1 | 900.7 ± 1.1 | 904.4 ± 1.2 | 908.1 ± 1.2 | 913 ± 1.3
303.15 K, 50000 kPa | 895.6 ± 1.1 | 899.4 ± 1.1 | 903 ± 1.2 | 906.7 ± 1.2 | 910.5 ± 1.2 | 915.3 ± 1.3
303.15 K, 55000 kPa | 898 ± 1.1 | 901.7 ± 1.1 | 905.4 ± 1.2 | 909 ± 1.2 | 912.8 ± 1.2 | 917.6 ± 1.3
303.15 K, 60000 kPa | 900.3 ± 1.1 | 904 ± 1.1 | 907.7 ± 1.2 | 911.3 ± 1.2 | 915.1 ± 1.2 | 919.9 ± 1.3
303.15 K, 65000 kPa | 902.6 ± 1.1 | 906.3 ± 1.1 | 909.9 ± 1.2 | 913.6 ± 1.2 | 917.3 ± 1.3 | 922.1 ± 1.3
323.15 K, 100 kPa | 852.1 ± 1 | 856.3 ± 1.1 | 860.2 ± 1.1 | 864.2 ± 1.1 | 868.1 ± 1.1 | 873.2 ± 1.2
323.15 K, 5000 kPa | 855.9 ± 1 | 859.9 ± 1.1 | 863.7 ± 1.1 | 867.6 ± 1.1 | 871.6 ± 1.1 | 876.5 ± 1.2
323.15 K, 10000 kPa | 859.4 ± 1.1 | 863.3 ± 1.1 | 867.1 ± 1.1 | 870.9 ± 1.1 | 874.9 ± 1.2 | 879.8 ± 1.2
323.15 K, 15000 kPa | 862.7 ± 1.1 | 866.6 ± 1.1 | 870.4 ± 1.1 | 874.2 ± 1.1 | 878.1 ± 1.2 | 883 ± 1.2
323.15 K, 20000 kPa | 865.9 ± 1.1 | 869.8 ± 1.1 | 873.5 ± 1.1 | 877.3 ± 1.1 | 881.2 ± 1.2 | 886 ± 1.2
323.15 K, 25000 kPa | 869 ± 1.1 | 872.9 ± 1.1 | 876.5 ± 1.1 | 880.3 ± 1.1 | 884.2 ± 1.2 | 889 ± 1.3
323.15 K, 30000 kPa | 872 ± 1.1 | 875.8 ± 1.1 | 879.4 ± 1.1 | 883.2 ± 1.2 | 887 ± 1.2 | 891.8 ± 1.3
323.15 K, 35000 kPa | 874.9 ± 1.1 | 878.7 ± 1.1 | 882.3 ± 1.1 | 886.1 ± 1.2 | 889.8 ± 1.2 | 894.6 ± 1.3
323.15 K, 40000 kPa | 877.6 ± 1.1 | 881.5 ± 1.1 | 885.1 ± 1.1 | 888.7 ± 1.2 | 892.6 ± 1.2 | 897.3 ± 1.3
323.15 K, 45000 kPa | 880.4 ± 1.1 | 884.2 ± 1.1 | 887.7 ± 1.2 | 891.4 ± 1.2 | 895.2 ± 1.2 | 899.9 ± 1.3
323.15 K, 50000 kPa | 882.9 ± 1.1 | 886.7 ± 1.1 | 890.3 ± 1.2 | 894 ± 1.2 | 897.7 ± 1.2 | 902.4 ± 1.3
323.15 K, 55000 kPa | 885.5 ± 1.1 | 889.2 ± 1.1 | 892.8 ± 1.2 | 896.4 ± 1.2 | 900.2 ± 1.2 | 904.8 ± 1.3
323.15 K, 60000 kPa | 888 ± 1.1 | 891.8 ± 1.2 | 895.3 ± 1.2 | 899 ± 1.2 | 902.7 ± 1.3 | 907.3 ± 1.3
323.15 K, 65000 kPa | 890.5 ± 1.1 | 894.2 ± 1.2 | 897.7 ± 1.2 | 901.3 ± 1.2 | 905 ± 1.3 | 909.6 ± 1.3
343.15 K, 100 kPa | 837.2 ± 1 | 841.1 ± 1.1 | 844.9 ± 1.1 | 849 ± 1.1 | 853.2 ± 1.1 | 857.8 ± 1.2
343.15 K, 5000 kPa | 841.2 ± 1 | 845 ± 1.1 | 848.8 ± 1.1 | 852.7 ± 1.1 | 857 ± 1.1 | 861.5 ± 1.2
343.15 K, 10000 kPa | 845 ± 1.1 | 848.9 ± 1.1 | 852.5 ± 1.1 | 856.5 ± 1.1 | 860.6 ± 1.2 | 865.1 ± 1.2
343.15 K, 15000 kPa | 848.8 ± 1.1 | 852.5 ± 1.1 | 856.2 ± 1.1 | 860 ± 1.1 | 864.2 ± 1.2 | 868.6 ± 1.2
343.15 K, 20000 kPa | 852.2 ± 1.1 | 855.9 ± 1.1 | 859.6 ± 1.1 | 863.4 ± 1.1 | 867.5 ± 1.2 | 871.9 ± 1.2
343.15 K, 25000 kPa | 855.6 ± 1.1 | 859.3 ± 1.1 | 862.9 ± 1.1 | 866.7 ± 1.2 | 870.7 ± 1.2 | 875.1 ± 1.3
343.15 K, 30000 kPa | 858.8 ± 1.1 | 862.6 ± 1.1 | 866.2 ± 1.1 | 870 ± 1.2 | 873.9 ± 1.2 | 878.3 ± 1.3
343.15 K, 35000 kPa | 862 ± 1.1 | 865.6 ± 1.1 | 869.2 ± 1.1 | 873 ± 1.2 | 876.9 ± 1.2 | 881.2 ± 1.3
343.15 K, 40000 kPa | 865 ± 1.1 | 868.6 ± 1.1 | 872.2 ± 1.2 | 875.9 ± 1.2 | 879.8 ± 1.2 | 884.1 ± 1.3
343.15 K, 45000 kPa | 867.9 ± 1.1 | 871.6 ± 1.1 | 875.1 ± 1.2 | 878.8 ± 1.2 | 882.6 ± 1.2 | 887 ± 1.3
343.15 K, 50000 kPa | 870.8 ± 1.1 | 874.4 ± 1.1 | 878 ± 1.2 | 881.6 ± 1.2 | 885.4 ± 1.2 | 889.7 ± 1.3
343.15 K, 55000 kPa | 873.6 ± 1.1 | 877.1 ± 1.2 | 880.6 ± 1.2 | 884.3 ± 1.2 | 888 ± 1.3 | 892.3 ± 1.3
343.15 K, 60000 kPa | 876.2 ± 1.1 | 879.7 ± 1.2 | 883.1 ± 1.2 | 886.9 ± 1.2 | 890.6 ± 1.3 | 894.9 ± 1.3
343.15 K, 65000 kPa | 878.9 ± 1.2 | 882.4 ± 1.2 | 885.8 ± 1.2 | 889.5 ± 1.2 | 893.2 ± 1.3 | 897.4 ± 1.3
